We go through one cell line from the supplement of paper PMC10307832.

Test in all cases: relative viability (nuclei count vs DMSO), 5 days (fraction); higher = more cells survive
Compound in the experiment “Linsitinib + Luminespib”: C[C@]1(O)C[C@@H](c2nc(-c3ccc4ccc(-c5ccccc5)nc4c3)c3c(N)nccn32)C1 [Linsitinib] + CCNC(=O)c1noc(-c2cc(C(C)C)c(O)cc2O)c1-c1ccc(CN2CCOCC2)cc1 [Luminespib] (partner 0.01 µM)
The procedure, abridged:
(§1)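 Lung cancer cell lines, seeded in 1536-well plates, were treated the following day by pin tool with a single drug or with five library-drug doses (not always all listed) in √10 steps on top of a fixed anchor-drug dose. Cells were fixed and nuclei stained in one step after 5 days, and nuclei were counted. Relative viability is the nuclei count for treated wells divided by that for vehicle wells, reported as medians of duplicate plates.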

Compound in the experiment “Linsitinib + Tozasertib”: C[C@]1(O)C[C@@H](c2nc(-c3ccc4ccc(-c5ccccc5)nc4c3)c3c(N)nccn32)C1 [Linsitinib] + Cc1cc(Nc2cc(N3CCN(C)CC3)nc(Sc3ccc(NC(=O)C4CC4)cc3)n2)n[nH]1 [Tozasertib] (partner 0.1 µM)
A digest of the protocol: as §1

Compound in the experiment “Ispinesib + Pictilisib”: Cc1ccc(C(=O)N(CCCN)[C@@H](c2nc3cc(Cl)ccc3c(=O)n2Cc2ccccc2)C(C)C)cc1 [Ispinesib] + CS(=O)(=O)N1CCN(Cc2cc3nc(-c4cccc5[nH]ncc45)nc(N4CCOCC4)c3s2)CC1 [Pictilisib] (partner 1 µM)
The procedure, abridged:
as §1

Compound in the experiment “Ispinesib + Crizotinib”: Cc1ccc(C(=O)N(CCCN)[C@@H](c2nc3cc(Cl)ccc3c(=O)n2Cc2ccccc2)C(C)C)cc1 [Ispinesib] + C[C@@H](Oc1cc(-c2cnn(C3CCNCC3)c2)cnc1N)c1c(Cl)ccc(F)c1Cl [Crizotinib] (partner 1 µM)
The procedure, abridged: as §1

As for UMC-11, the relative viability was found to be 1.04 in the experiment with Linsitinib + Luminespib (first compound 0.01 µM); 0.717 with Linsitinib + Luminespib (first compound 0.03162 µM); 0.992 in the experiment with Linsitinib + Luminespib (first compound 0.1 µM); 1.02 with Linsitinib + Luminespib (first compound 1 µM); 0.204 in the experiment with Linsitinib + Tozasertib (first compound 0.01 µM); 0.196 in the experiment with Linsitinib + Tozasertib (first compound 0.1 µM). Also, the relative viability with Linsitinib + Tozasertib (first compound 1 µM) is 0.19; with Ispinesib + Pictilisib (first compound 0.001 µM), 0.653; with Ispinesib + Pictilisib (first compound 0.003162 µM) it was 0.94; with Ispinesib + Pictilisib (first compound 0.01 µM) it was 0.701; in the experiment with Ispinesib + Pictilisib (first compound 0.03162 µM), 0.2; with Ispinesib + Pictilisib (first compound 0.1 µM), 0.263. Also, the relative viability with Ispinesib + Crizotinib (first compound 0.001 µM) is 0.547; with Ispinesib + Crizotinib (first compound 0.003162 µM), 0.636; in the experiment with Ispinesib + Crizotinib (first compound 0.01 µM) it was 0.394; in the experiment with Ispinesib + Crizotinib (first compound 0.03162 µM), 0.192; in the experiment with Ispinesib + Crizotinib (first compound 0.1 µM), 0.376.
